According to a melting point compilation (Tetko et al.; mined from patent text by program, amines drawn as free bases though some values may be those of a salt):

Which melting point does the source give for `CCOc1nc(NCc2ccco2)nc(Nc2ccc3[nH]c(-c4cccs4)nc3c2)n1` here?
Its melting point is 170 to 172 °C.

Which melting point does the source give for `NC(=Nc1ccc(CCCC(=O)Oc2cccc(Nc3ccccc3)c2)cc1)c1cccs1` here?
The melting point was 110 to 112 °C.

For `COC(=O)c1cc(OC)c(Cc2c(N)nc(N)nc2O)c(OC)c1`, which melting point is on record?
The melting point was 224 to 226 °C.

With `O=C(O)Cc1cc(C(=O)c2ccc(F)cc2)ccc1O` as the compound, how does the melting point read?
The melting point was 218 °C.

With `O=C(O)CN(CCN(CC(=O)O)CC(=O)O)CCN(CC(=O)O)CC(=O)NCCC(O)(P(=O)(O)O)P(=O)(O)O` as the compound, how does the melting point read?
The melting point was 145 °C.

For `O=[N+]([O-])c1ccccc1Cc1n[nH]c(O)n1`, which melting point is on record?
Its melting point is 210 to 212 °C.

Which melting point does the source give for `O=C(c1ccc(Cl)cc1)[C@H]1C[C@H]1C(=O)N1CCC(N2Cc3ccccc3NC2=O)CC1` (relative stereo) here?
The melting point was 272 to 273 °C.

With `C=C[C@H]1CN(c2c(F)cc3c(=O)c(C(=O)O)cn4c3c2OC[C@@H]4C)C[C@H]1N` as the compound, how does the melting point read?
The melting point was 238 to 240 °C.

With `O=C1CC(c2ccccc2O)=Nc2ccc(N3CCCC3)cc21` as the compound, how does the melting point read?
The melting point was 304 to 306 °C.

With `COC(=O)C1=C(C)NC(C)=C(C(=O)OCCN2CCN(c3ccccn3)CC2)C1c1cccc([N+](=O)[O-])c1` (stereo not given) as the compound, how does the melting point read?
Its melting point is 53 to 56 °C.

With `CCC(=O)c1sc(Oc2ccc3c(c2)OCO3)c2c1CCc1cnn(C)c1-2` as the compound, how does the melting point read?
The melting point was 99 to 100 °C.

Which melting point does the source give for `Cc1cc(Cl)ccc1N1CCCN(C)C1=S` here?
The melting point was 143 to 145 °C.

With `CCOC(=O)Cc1c(-c2ccccc2)c2cc(C)c(C)cc2oc1=O` as the compound, how does the melting point read?
The melting point was 127 to 128 °C.

For `O=C1NCC=Cc2c1[nH]c(Br)c2Br`, which melting point is on record?
The melting point was 170 to 175 °C.

With `OC1(C#Cc2ccc(OCCOc3ccccc3)cc2)CN2CCC1CC2` (stereo not given) as the compound, how does the melting point read?
Its melting point is 207 to 208 °C.

For `OC(=S)Cc1ccc(Cl)cc1`, which melting point is on record?
The melting point was 106 °C.

With `O=C(NC=C(c1ccccc1)c1ccccc1)c1sc2ccc(F)cc2c1O` as the compound, how does the melting point read?
Its melting point is 186 to 189 °C.

With `CC(C)C(NS(=O)(=O)c1ccc(Cl)s1)c1cccn1Cc1ccccc1` (stereo not given) as the compound, how does the melting point read?
Its melting point is 102 to 103 °C.

With `CCCCNC(=O)CCC(=NNC(N)=S)c1ccccc1` as the compound, how does the melting point read?
Its melting point is 64 to 68 °C.

Which melting point does the source give for `COc1ccc(-c2cc3ccccc3[nH]2)cc1NC(=S)Nc1cccc(CC(=O)O)c1` here?
Its melting point is 174 to 175 °C.

For `CONC(=O)COc1cc2c(cc1C#Cc1ccccc1)NC(=O)CC(c1cccc(C#N)c1)=N2`, which melting point is on record?
Its melting point is over 250 °C.

For `COc1cc2nc(NC3CC3)nc(-c3cccc([N+](=O)[O-])c3)c2cc1OC`, which melting point is on record?
Its melting point is 140 to 142 °C.

Which melting point does the source give for `O=C1NCc2c1cc1ccc3c(c1c2-c1ccccc1)OCO3` here?
Its melting point is 290 to 292 °C.

Which melting point does the source give for `COC(=O)CNC(=O)c1cc2cc(Cl)ccc2[nH]1` here?
Its melting point is 252 to 254 °C.

For `O=S1(=O)c2cccc3cccc(c23)N1CCCN1CCC(CC2C=Cc3ccccc32)CC1` (stereo not given), which melting point is on record?
Its melting point is 140 °C.

Which melting point does the source give for `COc1nc(N)nc2c1ncn2[C@H]1C[C@H](O)[C@@H](CO)O1` here?
The melting point was 155 to 157 °C.

For `O=c1cc(-c2ccccc2Cl)[nH]c(=O)n1-c1ccc(C(F)(F)F)cn1`, which melting point is on record?
Its melting point is 281 to 283 °C.

For `COc1cc(C=CC#N)cc(OC)c1OC`, which melting point is on record?
The melting point was 92.1 °C.

Which melting point does the source give for `COc1ccc(CN(C(=O)C2CCCc3c(O)cccc32)c2ccc(C(C)C)cc2)cn1` (stereo not given) here?
The melting point was 158 °C.

For `CC1C(=NO)SCC(=O)N1C` (stereo not given), which melting point is on record?
Its melting point is 205 °C.

Which melting point does the source give for `CC(C)(C)Oc1ccc(CCC(=O)NCCC(=O)O)cc1` here?
Its melting point is 70 to 72 °C.

Which melting point does the source give for `COc1cc(N2C(=O)CCC2=O)ccc1OCCCN1CCN(c2ccccc2)CC1` here?
The melting point was 166 to 167 °C.

For `CN1C(=O)N2C(=NC1(C)C)N(C(=O)NC1CCCCC1)c1ccccc12`, which melting point is on record?
The melting point was 114 to 116 °C.

Which melting point does the source give for `CN(CCO)c1nc(-c2ccc(Cl)c(C(=O)NCC34CC5CC(CC(C5)C3)C4)c2)ccc1C(=O)O` here?
The melting point was 121 to 124 °C.

With `CCC(=O)OC1=C(c2nnc(-c3ccccc3)o2)N(C)S(=O)(=O)c2ccccc21` as the compound, how does the melting point read?
Its melting point is 143 to 146 °C.

For `COC(=O)c1cc(I)cc(C)c1O`, which melting point is on record?
Its melting point is 82 to 84 °C.

Which melting point does the source give for `COc1cc(Cl)ccc1CCl` here?
The melting point was 43 to 45 °C.

For `COC(=O)C1=C(C)NC(C)=C(C(=O)OCCCl)C1c1cccc(Br)n1` (stereo not given), which melting point is on record?
The melting point was 152 to 153 °C.

With `COc1cccc(CNC(=O)c2nc3c(cc(C)n3S(C)(=O)=O)c(=O)[nH]2)c1` as the compound, how does the melting point read?
The melting point was 211 to 213 °C.

Which melting point does the source give for `CCOC(=O)c1cn(-c2csnn2)c2nc(Cl)c(F)cc2c1=O` here?
The melting point was 188 to 192 °C.

With `Cc1cc(OCC(=O)NCCO[N+](=O)[O-])no1` as the compound, how does the melting point read?
Its melting point is 93 to 94 °C.

Which melting point does the source give for `O=C1CC(NC(=O)c2cccnc2)CCCN1` (stereo not given) here?
Its melting point is 220 to 221 °C.

Which melting point does the source give for `CC(C)(C)OC(=O)N1CC=C(c2cnc3c(c2)N(Cc2cc(Cl)ccc2Cl)CCN3)CC1` here?
Its melting point is 92 to 95 °C.

Which melting point does the source give for `CC=CC(=O)Nc1cccc(OC(=O)Nc2ccc(Cl)c(Cl)c2)c1` here?
Its melting point is 193 to 194 °C.

For `CCc1cccc(NCCCc2cn(C(c3ccccc3)(c3ccccc3)c3ccccc3)cn2)c1`, which melting point is on record?
Its melting point is 189 to 191 °C.

For `CC(C)(CNC(=O)Cc1cnc[nH]1)c1ccc(C(=O)Nc2cn3cc(C(F)(F)F)ccc3n2)cc1`, which melting point is on record?
The melting point was 261 to 263 °C.

For `O=C(c1cccnc1)N1CCCC(c2ccccc2)=N1`, which melting point is on record?
Its melting point is 84 to 86 °C.

For `O=c1nc(-c2ccccn2)sc2ccc(Cl)cc12`, which melting point is on record?
Its melting point is 269 to 270 °C.

Which melting point does the source give for `Cc1ccc(S(=O)(=O)C[C@H]2CN3C(=O)C[C@@H]3O2)cc1` (racemic) here?
The melting point was 120 to 121 °C.

For `Cc1cc(SCc2ccnc3sc(-c4ccc(C(F)(F)F)cc4)nc23)ccc1OCC(=O)O`, which melting point is on record?
Its melting point is 82 to 85 °C.

With `COc1ccc(Nc2ccc(CO)cc2)cc1` as the compound, how does the melting point read?
Its melting point is 110 °C.

Which melting point does the source give for `CNC(=O)Nc1cc(-c2ccc(S(C)(=O)=O)cc2)c(-c2ccc(F)cc2)s1` here?
The melting point was 70 to 75 °C.

Which melting point does the source give for `CCC(CC)c1ccc(C(F)(F)F)c2nc(Oc3c(C)cc(Cl)cc3Cl)n(C)c12` here?
Its melting point is 149 to 151 °C.

For `O=C(CSc1ccccc1)Nc1ccccc1C(=O)O`, which melting point is on record?
The melting point was 166 to 167 °C.

Which melting point does the source give for `CC(=O)c1ccccc1CN1C(=O)C(NC(=O)Nc2cccc(-c3nnn[nH]3)c2)N=C(C2CCCCC2)c2cccc(C)c21` (stereo not given) here?
The melting point was 199 to 208 °C.

Which melting point does the source give for `Cc1onc(C(C)(O)c2ccccc2)c1NC(=O)CCl` (stereo not given) here?
Its melting point is 130 to 132 °C.

With `CCCCCCC(=O)Nc1cccc2c1C1(COc3cc4c(cc31)OCCO4)C(=O)N2C` (stereo not given) as the compound, how does the melting point read?
Its melting point is 123 to 124 °C.

With `O=C(O)c1ccc(N(CCCc2ccc(Cl)cc2)CCCc2ccc(Cl)cc2)cc1` as the compound, how does the melting point read?
Its melting point is 128 to 131 °C.

With `CC(=O)OCCCc1ccc(-c2ccc3cc(C(=O)OCc4ccccc4)ccc3c2)cc1C12CC3CC(CC(C3)C1)C2` as the compound, how does the melting point read?
The melting point was 132 °C.

Which melting point does the source give for `CN(Cc1ccc(NC(=O)c2coc3c2C(=O)CCC3)cc1)C(=O)OC(C)(C)C` here?
Its melting point is 150 °C.

Which melting point does the source give for `O=C(O)c1cnn(-c2ccc(Cl)cc2Cl)c1C(F)(F)F` here?
The melting point was 154 to 155 °C.

With `Cc1sc2c(Br)c3ccccc3c(-c3cc(C(C)C)c(O)c(C(C)C)c3)c2c1C` as the compound, how does the melting point read?
Its melting point is 212 to 216 °C.

For `CC1(C(=O)O)CCCCC1O` (stereo not given), which melting point is on record?
The melting point was 97 °C.

For `Cc1nc(N2CCCC(C(O)c3ccccc3)C2=O)sc1C(=O)NCc1ccccc1` (stereo not given), which melting point is on record?
Its melting point is 74 to 75 °C.

With `Cc1nc2ccc(CNS(=O)(=O)c3ccccc3)cc2n1Cc1ccccc1Cl` as the compound, how does the melting point read?
The melting point was 164 to 167 °C.

Which melting point does the source give for `CCOC(=O)c1c(-c2ccccc2Cl)c2cc(Cl)ccc2n(C)c1=O` here?
Its melting point is 139 to 140 °C.

Which melting point does the source give for `CCCOc1cnc(CCl)cc1O` here?
The melting point was 165 to 167 °C.

Which melting point does the source give for `Cc1ccc([N+](=O)[O-])cc1COCC(F)(F)C(F)(F)F` here?
Its melting point is 53.5 to 54.5 °C.

With `CCCC(CC)c1nc(C)nc2c1c(C)c(C)n2-c1c(C)cc(C)cc1C` (stereo not given) as the compound, how does the melting point read?
Its melting point is 100 to 102 °C.

With `Cc1ncc(C(O)=S)cc1OC(C)C` as the compound, how does the melting point read?
Its melting point is 154 to 155 °C.
